This note sets out measurements from patent publication US4871771A, “Leukotriene antagonists” (SmithKline Beckman Corporation, priority 1988, dated 1989).

Assay [1] addresses T1, [^3 H]-LTB4 binding sites on human U937 cell membranes (Homo sapiens, UniProt Q15722).
T1 construct: Harvested U937 cells were washed with 50 mM Tris-HCl; endogenous in cells; host or cells: U937 cells (membrane-enriched fraction)
The experiment in a line: Receptor binding affinity: competition for [3H]-LTB4 binding sites on human U937 cell membranes. Conditions: [3H]-LTB4 about 0.2 nM, 25°, 30 minutes.

The target of assay [2] is T2, LTB4 Induced Ca^2 + flux (U937 cells) (Homo sapiens, UniProt Q15722).
T2 construct: endogenous in cells; host or cells: U937 cells, DMSO-differentiated, intact
T2 sequence (Q15722 whole entry): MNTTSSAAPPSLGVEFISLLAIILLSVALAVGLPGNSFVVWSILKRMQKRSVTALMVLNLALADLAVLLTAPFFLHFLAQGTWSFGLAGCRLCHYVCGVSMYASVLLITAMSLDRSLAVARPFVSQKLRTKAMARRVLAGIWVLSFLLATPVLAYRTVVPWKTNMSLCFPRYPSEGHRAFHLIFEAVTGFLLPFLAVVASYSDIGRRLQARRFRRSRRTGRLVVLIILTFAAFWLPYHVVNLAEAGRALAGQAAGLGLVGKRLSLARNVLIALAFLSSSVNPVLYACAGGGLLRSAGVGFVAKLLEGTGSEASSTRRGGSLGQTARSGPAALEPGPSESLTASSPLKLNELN
The assay is described as follows: LTB4 induced calcium mobilization (Ca2+ flux) in U937 cells measured with fura-2. The assay is classed as cell-based. The method, then:
The methods employed were as follows.
Cells were grown both in T-flasks and in Spinner culture.
Harvested cells were resuspended at 2×10^6 cells/ml in Krebs Ringer Hensilet buffer containing 0.1% BSA (RIA grade), 1.1 mM MgSO4, 1.0 mM CaCl2 and 5 mM HEPES (pH 7.4, buffer B). The diacetomethoxy ester of fura-2 (fura-2/AM) was added to a final concentration of 2 uM and cells incubated in the dark for 30 minutes at 37° C. The cells were centrifuged at 800×g for 10 minutes and resuspended at 2×10^6 cells/ml in fresh buffer B and incubated at 37° C. for 20 minutes to allow for complete hydrolysis of entrapped ester. The cells were centrifuged at 800×g for 10 minutes and resuspended in cold fresh buffer B at 5×10^6 cells/ml. Cells were maintained on ice in the dark until used for fluorescent measurements.
The fluorescence of fura-2 containing U937 cells was measured with a fluorometer designed by the Johnson Foundation Biomedical Instrumentation Group. Fluorometer is equipped with temperature control and a magnetic stirrer under the cuvette holder. […] All experiments were performed at 37° C. with constant mixing.
U937 cells were diluted with fresh buffer to a concentration of 1×10^6 cells/ml and maintained in the dark on ice. Aliquots (2 ml) of the cell suspension were put into 4 ml cuvettes and the temperature brought up to 37° C. (maintained in 37° C. water bath for 10 min). Cuvettes were transferred to the fluorometer and fluorescence measured for about one minute before addition of stimulants or antagonists and followed for about 2 minutes post stimulus. Agonists and antagonists were added as 2 ul aliquots.
Antagonists were added first to the cells in the fluorometer in order to detect potential agonist activity. […] [Ca^2+ ]i was calculated using the following formula: [formula] F was the maximum relative fluorescence measurement of the sample. Fmax was determined by lysing the cells with 10 ul of 10% Triton X-100 (final Concentration 0.02%). After Fmax was determined 67 ul of 100 mM EGTA solution (pH 10) was added to totally chelate the Ca^2+ and quench the fura-2 signal and obtain the Fmin. […] The Ki for calcium mobilization was determined using the formula: [formula]
In general terms: Calcium assays in cells follow changes in intracellular calcium, usually with a dye or a luminescent sensor.

For orientation: Ki means the dissociation constant of the complex between target and ligand, obtained from inhibition or displacement.

T1 sequence (Q15722 whole entry): as above

With `CCCCCCCCCCCCc1ccccc1C(SCCC(=O)O)SCCC(=O)O`, the affinity in assay [1] corresponds to a Ki of 6.5 µM. Regarding `CCCCCCCCCCCOc1ccccc1C(SCCC(=O)O)SCCC(=O)O`, the Ki in assay [1] was 5.3 µM. As to `CCCCCCCCCCCOc1ccc(Br)cc1C(SCCC(=O)O)SCCC(=O)O`, the Ki in assay [2] was 5.6 µM; in assay [1], 4.2 µM. In assay [1], `CCCCCCCCCCC#Cc1ccccc1C(SCCC(=O)O)SCCC(=O)O` registered a Ki of 7 µM. In the case of `CCCCCCCCCCCOc1ccc([N+](=O)[O-])cc1C(SCCC(=O)O)SCCC(=O)O`, the values for the Ki in assay [2] and in assay [1] were 5 µM and 2.2 µM, respectively. As for `O=C(O)CCSC(SCCC(=O)O)c1ccccc1CCCCCCCCc1ccccc1`, the Ki was 7 µM in assay [2] and 4.4 µM in assay [1]. In assay [1], `CCCCCCCCCCCCc1ccccc1C(SCCC(=O)O)[S+]([O-])CCC(=O)O` (stereo not drawn) registered a Ki of 5.3 µM.

As to `CCCCCCCCCC/C=C\c1ccccc1C(SCCC(=O)O)SCCC(=O)O`, in assay [1], the affinity, expressed as Ki, was 7.3 µM. Same read-out and setting: then `CCCCCCCCCCCOc1ccc(O)cc1C(SCCC(=O)O)SCCC(=O)O`, with 6 µM; and `O=C(O)CCSC(SCCC(=O)O)c1cc(C(F)(F)F)ccc1CCCCCCCCc1ccccc1`, with 9.6 µM. As for `CCCCCCCCCC/C=C/c1ccccc1C(SCCC(=O)O)SCCC(=O)O`, the Ki in assay [1] was 4.3 µM. Take `O=C(O)CCSC(SCCC(=O)O)c1cccc(CCCCCCCCc2ccccc2)c1`: the Ki in assay [2] turned out to be 5.2 µM; in assay [1] it was 2.1 µM. For the compound `O=C(O)CCSC(SCCC(=O)O)c1ccc(C(F)(F)F)cc1CCCCCCCCc1ccccc1`, the Ki in assay [2] turned out to be 8.7 µM; in assay [1] it was 1.3 µM.

`O=C(O)CCSC(SCCC(=O)O)c1ccccc1CCCCCCc1ccccc1` displayed a Ki in assay [1] of 4.5 µM.

`COc1ccc(SCCCCCCCc2ccccc2C(SCCC(=O)O)SCCC(=O)O)cc1`: the results for the Ki in assay [2] and in assay [1] were 7.6 µM and 1.2 µM, respectively. Consider `O=C(O)CCSC(SCCC(=O)O)c1ccccc1CCCCCCCCCCc1ccccc1`, for which the results for the Ki in assay [2] and in assay [1] were 4.8 µM and 11 µM, respectively.

As for `C#CCCCCCCCCCOc1ccccc1C(SCCC(=O)O)SCCC(=O)O`, in assay [1], the Ki is 10 µM. For `O=C(O)CCSC(SCCC(=O)O)c1ccccc1OCCCCCCCc1ccccc1`, the affinity in assay [1] corresponds to a Ki of 5.3 µM.

For `O=C(O)CCSC(SCCC(=O)O)c1ccccc1CCCCCCCSc1ccc(Br)cc1`, the figures for the inhibition constant (Ki) in assay [2] and in assay [1] were 6.7 µM and 2.8 µM, respectively.

For `O=C(O)CCSC(SCCC(=O)O)c1ccccc1CCCCCCCSc1ccc(F)cc1`, the Ki in assay [2] was found to be 6.4 µM; in assay [1] it was 3.3 µM. On to `O=C(O)CCSC(SCCC(=O)O)c1ccccc1CCCCCCCCCCCC(F)(F)F`, for which, in assay [2], the Ki was 7.8 µM.
